Laboratory results as given in US20240025856A1, “1,2,3,4-TETRAHYDROQUINOLINE DERIVATIVES AS INHIBITORS OF THE YAP/TAZ-TEAD ACTIVATION FOR TREATING CANCER” (KATHOLIEKE UNIVERSITEIT LEUVEN, priority 2020, published 2024).

Tested on: YAP/TAZ-TEAD transcription
Assay: Reporter gene assay for measuring the inhibition of YAP/TAZ-TEAD transcription (TEAD-responsive element luciferase reporter in Hek293T cells)
Format: cell-based
Settings: Homo sapiens, HEK-293T, 24 h, Hek293T cells transiently transfected with TEAD-responsive element luciferase reporter; 24 hours incubation
Method: Hek293T cells are cultured in DMEM supplemented with 10% fetal bovine serum, Sodium pyruvate, Sodium bicarbonate, L-glutamine. The cells are harvested and transiently transfected with TEAD-responsive element luciferase reporter. Transfected cells are plated in 384-wells plate containing pre-diluted compounds. After 24 hours incubation at 37° C./5% CO2, assay plates were cooled down to RT and levelled to an equal volume per well, prior to the addition of 25 uL luciferase substrate SteadyLite (Perkin Elmer)/well. The plate was shaken for 10 min at 600 rpm, centrifuged for 1 min at 500 rpm and measured with an Envision reader (PerkinElmer). The amount of relative light units produced by the TEAD reporter is used to calculated percent of inhibition. The percent of reporter inhibition was calculated in the presence of a positive control inhibitor (100% inhibition) versus a condition with the presence of the vehicle basal activity of the reporter (0% inhibition). The ability of a test compound to inhibit this activity was determined as: Percentage inhibition=[[…]((RLU determined in the presence of vehicle−RLU determined for sample with test compound present) divided by (RLU determined in the presence of vehicle−RLU determined for sample with positive control inhibitor))]*100
The activities of example compounds tested are depicted in the table below. The activity ranges A, B and C refer to IC50 values in the reporter gene assay as follows: “A”: IC50<1 μM; “B”: 1 μM≤IC50≤20 μM and “C”: IC50>20 μM; NT=not tested.

Row | Compound | IC50
1 | C=CC(=O)NC1Cc2ccccc2N(c2ccccc2)C1 (centres unmarked) [compound 002, N-(1-phenyl-1,2,3,4-tetrahydroquinolin-3-yl)acrylamide] | < 1000 nM
2 | C=CC(=O)NC1Cc2ccccc2N(c2cccc(C(F)(F)F)c2)C1 (centres unmarked) [compound 003, N-(1-(3-(trifluoromethyl)phenyl)-1,2,3,4-tetrahydroquinolin-3-yl)acrylamide] | < 1000 nM
3 | C=CC(=O)NC1Cc2ccccc2N(c2ccc(C(C)C)cc2)C1 (centres unmarked) [compound 004, N-(1-(4-isopropylphenyl)-1,2,3,4-tetrahydroquinolin-3-yl)acrylamide] | < 1000 nM
4 | C=CC(=O)NC1Cc2ccccc2N(c2cccc(C(C)C)c2)C1 (centres unmarked) [compound 005, N-(1-(3-isopropylphenyl)-1,2,3,4-tetrahydroquinolin-3-yl)acrylamide] | < 1000 nM
5 | C=CC(=O)NC1Cc2ccccc2N(c2cccc(OC)c2)C1 (centres unmarked) [compound 006, N-(1-(3-methoxyphenyl)-1,2,3,4-tetrahydroquinolin-3-yl)acrylamide] | < 1000 nM
6 | C=CC(=O)NC1Cc2ccccc2N(c2ccc(OC)cc2)C1 (centres unmarked) [compound 007, N-(1-(4-methoxyphenyl)-1,2,3,4-tetrahydroquinolin-3-yl)acrylamide] | < 1000 nM
7 | C=CC(=O)NC1Cc2ccccc2N(c2ccc(-c3ccccc3)cc2)C1 (centres unmarked) [compound 008, N-(1-([1,1′-biphenyl]-4-yl)-1,2,3,4-tetrahydroquinolin-3-yl)acrylamide] | < 1000 nM
8 | C=CC(=O)NC1Cc2ccccc2N(c2cccc(-c3ccccc3)c2)C1 (centres unmarked) [compound 009, N-(1-([1,1′-biphenyl]-3-yl)-1,2,3,4-tetrahydroquinolin-3-yl)acrylamide] | 1000 to 20000 nM
9 | C=CC(=O)NC1Cc2ccccc2N(c2ccc(C(F)(F)F)nc2)C1 (centres unmarked) [compound 010, N-(1-(6-(trifluoromethyl)pyridin-3-yl)-1,2,3,4-tetrahydroquinolin-3-yl)acrylamide] | < 1000 nM
10 | C=CC(=O)NC1Cc2ccccc2N(c2ccc(C(F)(F)F)cn2)C1 (centres unmarked) [compound 011, N-(1-(5-(trifluoromethyl)pyridin-2-yl)-1,2,3,4-tetrahydroquinolin-3-yl)acrylamide] | < 1000 nM
11 | C=CC(=O)NC1Cc2ccccc2N(c2ccnc(C(F)(F)F)c2)C1 (centres unmarked) [compound 012, N-(1-(2-(trifluoromethyl)pyridin-4-yl)-1,2,3,4-tetrahydroquinolin-3-yl)acrylamide] | 1000 to 20000 nM
12 | C=CC(=O)NC1Cc2ccccc2N(C2CCCCC2)C1 (centres unmarked) [compound 013, N-(1-cyclohexyl-1,2,3,4-tetrahydroquinolin-3-yl)acrylamide] | < 1000 nM
13 | C=CC(=O)NC1Cc2ccccc2N(c2ccc(C(=O)NC)cc2)C1 (centres unmarked) [compound 014, 4-(3-acrylamido-3,4-dihydroquinolin-1(2H)-yl)-N-methylbenzamide] | 1000 to 20000 nM
14 | C=CC(=O)NC1Cc2ccccc2N(c2cccc(NC(C)=O)c2)C1 (centres unmarked) [compound 015, N-(1-(3-acetamidophenyl)-1,2,3,4-tetrahydroquinolin-3-yl)acrylamide] | 1000 to 20000 nM
15 | C=CC(=O)NC1Cc2ccccc2N(c2ccc3[nH]ccc3c2)C1 (centres unmarked) [compound 016, N-(1-(1H-indol-5-yl)-1,2,3,4-tetrahydroquinolin-3-yl)acrylamide] | 1000 to 20000 nM
16 | C=CC(=O)NC1Cc2ccccc2N(c2ccc3cc[nH]c3c2)C1 (centres unmarked) [compound 017, N-(1-(1H-indol-6-yl)-1,2,3,4-tetrahydroquinolin-3-yl)acrylamide] | < 1000 nM
17 | C=CC(=O)NC1Cc2ccccc2N(c2ccc(F)c(F)c2)C1 (centres unmarked) [compound 018, N-(1-(3,4-difluorophenyl)-1,2,3,4-tetrahydroquinolin-3-yl)acrylamide] | < 1000 nM
18 | C=CC(=O)NC1Cc2ccccc2N(c2ccc(C3CCCCC3)cc2)C1 (centres unmarked) [compound 019, N-(1-(4-cyclohexylphenyl)-1,2,3,4-tetrahydroquinolin-3-yl)acrylamide] | < 1000 nM
19 | C=CC(=O)NC1Cc2ccccc2N(c2ccc(C(F)F)cc2)C1 (centres unmarked) [compound 020, N-(1-(4-(difluoromethyl)phenyl)-1,2,3,4-tetrahydroquinolin-3-yl)acrylamide] | < 1000 nM
20 | C=CC(=O)NC1Cc2ccccc2N(c2ccc(OC(F)F)cc2)C1 (centres unmarked) [compound 022, N-(1-(4-(difluoromethoxy)phenyl)-1,2,3,4-tetrahydroquinolin-3-yl)acrylamide] | < 1000 nM
21 | C=CC(=O)NC1Cc2ccccc2N(c2cccc(F)c2)C1 (centres unmarked) [compound 024, N-(1-(3-fluorophenyl)-1,2,3,4-tetrahydroquinolin-3-yl)acrylamide] | < 1000 nM

Row | Compound | IC50
22 | C=CC(=O)NC1Cc2ccccc2N(c2cccc(F)c2F)C1 (centres unmarked) [compound 025, N-(1-(2,3-difluorophenyl)-1,2,3,4-tetrahydroquinolin-3-yl)acrylamide] | < 1000 nM
23 | C=CC(=O)NC1Cc2ccccc2N(c2cc(F)ccc2F)C1 (centres unmarked) [compound 026, N-(1-(2,5-difluorophenyl)-1,2,3,4-tetrahydroquinolin-3-yl)acrylamide] | < 1000 nM
24 | C=CC(=O)NC1Cc2ccccc2N(c2cc(F)cc(F)c2)C1 (centres unmarked) [compound 027, N-(1-(3,5-difluorophenyl)-1,2,3,4-tetrahydroquinolin-3-yl)acrylamide] | < 1000 nM
25 | C=CC(=O)NC1Cc2ccccc2N(c2cnc(C(F)(F)F)nc2)C1 (centres unmarked) [compound 031, N-(1-(2-(trifluoromethyl)pyrimidin-5-yl)-1,2,3,4-tetrahydroquinolin-3-yl)acrylamide] | < 1000 nM
26 | C=CC(=O)NC1Cc2ccccc2N(c2cccc(Cl)c2)C1 (centres unmarked) [compound 032, N-(1-(3-chlorophenyl)-1,2,3,4-tetrahydroquinolin-3-yl)acrylamide] | < 1000 nM
27 | C=CC(=O)NC1Cc2ccccc2N(c2ccc(Cl)cc2)C1 (centres unmarked) [compound 033, N-(1-(4-chlorophenyl)-1,2,3,4-tetrahydroquinolin-3-yl)acrylamide] | < 1000 nM
28 | C=CC(=O)NC1Cc2ccccc2N(c2ccc(C)cc2C)C1 (centres unmarked) [compound 034, N-(1-(2,4-dimethylphenyl)-1,2,3,4-tetrahydroquinolin-3-yl)acrylamide] | < 1000 nM
29 | C=CC(=O)NC1Cc2ccccc2N(c2ccc(F)cc2)C1 (centres unmarked) [compound 035, N-(1-(4-fluorophenyl)-1,2,3,4-tetrahydroquinolin-3-yl)acrylamide] | < 1000 nM
30 | C=CC(=O)NC1Cc2ccccc2N(c2ccc(F)cc2F)C1 (centres unmarked) [compound 036, N-(1-(2,4-difluorophenyl)-1,2,3,4-tetrahydroquinolin-3-yl)acrylamide] | < 1000 nM
31 | CCC(=O)NC1Cc2ccccc2N(c2ccc(C(F)(F)F)cc2)C1 (centres unmarked) [compound 037, N-(1-(4-(trifluoromethyl)phenyl)-1,2,3,4-tetrahydroquinolin-3-yl)propionamide] | 1000 to 20000 nM
32 | CC(C)=CC(=O)NC1Cc2ccccc2N(c2ccc(C(F)(F)F)cc2)C1 (centres unmarked) [compound 038, 3-methyl-N-(1-(4-(trifluoromethyl)phenyl)-1,2,3,4-tetrahydroquinolin-3-yl)but-2-enamide] | 1000 to 20000 nM
33 | C#CC(=O)NC1Cc2ccccc2N(c2ccc(C(F)(F)F)cc2)C1 (centres unmarked) [compound 040, N-(1-(4-(trifluoromethyl)phenyl)-1,2,3,4-tetrahydroquinolin-3-yl)propiolamide] | < 1000 nM
34 | CN(C)C/C=C/C(=O)NC1Cc2ccccc2N(c2ccc(C(F)(F)F)cc2)C1 (centres unmarked) [compound 041, (E)-4-(dimethylamino)-N-(1-(4-(trifluoromethyl)phenyl)-1,2,3,4-tetrahydroquinolin-3-yl)but-2-enamide] | 1000 to 20000 nM
35 | N#CC1CN(C2Cc3ccccc3N(c3ccc(C(F)(F)F)cc3)C2)C1=O (centres unmarked) [compound 042, 2-oxo-1-(1-(4-(trifluoromethyl)phenyl)-1,2,3,4-tetrahydroquinolin-3-yl)azetidine-3-carbonitrile] | 1000 to 20000 nM
36 | OCCNC1Cc2ccccc2N(c2ccc(C(F)(F)F)cc2)C1 (centres unmarked) [compound 043, 2-((1-(4-(trifluoromethyl)phenyl)-1,2,3,4-tetrahydroquinolin-3-yl)amino)ethan-1-ol] | < 1000 nM
37 | O=C(O)CNC1Cc2ccccc2N(c2ccc(C(F)(F)F)cc2)C1 (centres unmarked) [compound 044, (1-(4-(trifluoromethyl)phenyl)-1,2,3,4-tetrahydroquinolin-3-yl)glycine] | > 20000 nM
38 | OCCCNC1Cc2ccccc2N(c2ccc(C(F)(F)F)cc2)C1 (centres unmarked) [compound 045, 3-((1-(4-(trifluoromethyl)phenyl)-1,2,3,4-tetrahydroquinolin-3-yl)amino)propan-1-ol] | 1000 to 20000 nM
39 | O=C(O)CCNC1Cc2ccccc2N(c2ccc(C(F)(F)F)cc2)C1 (centres unmarked) [compound 046, 3-((1-(4-(trifluoromethyl)phenyl)-1,2,3,4-tetrahydroquinolin-3-yl)amino)propanoic acid] | < 1000 nM
40 | CS(=O)(=O)NC1Cc2ccccc2N(c2ccc(C(F)(F)F)cc2)C1 (centres unmarked) [compound 047, N-(1-(4-(trifluoromethyl)phenyl)-1,2,3,4-tetrahydroquinolin-3-yl)methanesulfonamide] | < 1000 nM
41 | C=CS(=O)(=O)NC1Cc2ccccc2N(c2ccc(C(F)(F)F)cc2)C1 (centres unmarked) [compound 048, N-(1-(4-(trifluoromethyl)phenyl)-1,2,3,4-tetrahydroquinolin-3-yl)ethenesulfonamide] | < 1000 nM
